Experimental data reported in patent publication US8546443B2, “Benzylic oxindole pyrimidines” (Boehringer Ingelheim International GmbH, priority 2010, dated 2013).

What follows are molecules tested against T1, cytoplasmic kinase domain of human IGF-1R (IGF-1R-GST) (Homo sapiens, UniProt P08069) (assay: Insulin-like growth factor-1 receptor (IGF-1R) kinase assay (DELFIA)). Settings: IGF-1R-GST kinase activity, read-out: IGF1R IC50.
T1 construct: cytoplasmic kinase domain of human IGF-1R (amino acids 964-1370); GST (glutathione-S-transferase); made in house; host or cells: High Five insect cells (Invitrogen)
T1 sequence (P08069 964-1367 limits assumed): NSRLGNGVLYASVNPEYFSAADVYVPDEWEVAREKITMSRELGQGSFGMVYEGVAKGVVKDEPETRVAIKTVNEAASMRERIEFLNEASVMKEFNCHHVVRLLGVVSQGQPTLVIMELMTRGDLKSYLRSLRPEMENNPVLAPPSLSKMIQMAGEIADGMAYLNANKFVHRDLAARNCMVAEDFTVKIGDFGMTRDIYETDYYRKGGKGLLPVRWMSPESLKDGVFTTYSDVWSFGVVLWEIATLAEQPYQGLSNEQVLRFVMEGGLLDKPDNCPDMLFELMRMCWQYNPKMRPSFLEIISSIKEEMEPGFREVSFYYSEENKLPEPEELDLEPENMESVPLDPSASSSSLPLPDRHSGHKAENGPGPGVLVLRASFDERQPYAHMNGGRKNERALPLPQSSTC
Assay type: biochemical
Protocol: Insulin-Like Growth Factor-1 Receptor (IGF-1R)-Kinase Assay
The kinase activity is measured by DELFIA® assay (dissociation-enhanced lanthanide fluorescence immunoassay, Perkin Elmer). […] Enzyme activity is measured in the presence of substances and a control substance. Poly-glutamate-tyrosine peptide (pEY, Sigma Aldrich) and biotinylated pEY (bio-pEY) are used as reaction substrates.
After 40 min at RT the reactions are stopped with 50 μL of stop solution (250 mM EDTA, 20 mM HEPES pH 7.4). 90 μL from each reaction are transferred onto streptavidin-coated 96-well plates. After 120 min incubation at RT the plates are washed three times with 200 μL phosphate-buffered saline (PBS) per well. The plates are incubated for 60 min with 100 μL of europium-coupled antibody against phospho-tyrosine (diluted 1/2000 in Perkin Elmer DELFIA assay buffer) per well. The plates are washed three times with 200 μL per well of DELFIA washing buffer. 100 μL DELFIA Enhancement Solution (Perkin Elmer) is added to each well, and the plates are incubated for 10 min. The fluorescence signal is measured with a Wallac Victor TRF Reader. IC50 values for the inhibition of the IGF-1R-kinase activity are calculated using the programmes Fifty (Version 2) and GraphPad (Version 3.0).
An IC50 of 6 nM was found for `COc1cc(N2CCN(C(=O)CN(C)C)CC2)ccc1Nc1ncc(C(F)(F)F)c(NCc2cccc3c2CC(=O)N3)n1` [Example I-91] in this work.
An IC50 of 9 nM was found for `COc1cc(N2CCN(C(=O)CCCN(C)C)CC2)ccc1Nc1ncc(C(F)(F)F)c(NCc2cccc3c2CC(=O)N3)n1` [Example I-92] in this work.
An IC50 of 5 nM was found for `CC1(C)C(=O)Nc2cccc(CNc3nc(Nc4ccc(C5CCN(C6COC6)CC5)cc4)ncc3Cl)c21` [Example I-93] in this work.
An IC50 of 14 nM was found for `CN1CCN(c2ccc(Nc3ncc(Cl)c(NCc4cccc5c4C(C)(C)C(=O)N5)n3)cc2)CC1` [Example I-94] in this work.
An IC50 of 16 nM was found for `COc1cc(N2CCN(C3CCOCC3)CC2)ccc1Nc1ncc(Cl)c(NCc2cccc3c2C(C)(C)C(=O)N3)n1` [Example I-95] in this work.
An IC50 of 3 nM was found for `COc1cc(N2CCN(C3CCC3)CC2)ccc1Nc1ncc(Cl)c(NCc2cccc3c2C(C)(C)C(=O)N3)n1` [Example I-96] in this work.
An IC50 of 2 nM was found for `COc1cc(N2CCN(C(C)C)CC2)ccc1Nc1ncc(Cl)c(NCc2cccc3c2C(C)(C)C(=O)N3)n1` [Example I-98] in this work.
An IC50 of 2 nM was found for `CCN1CCN(c2ccc(Nc3ncc(Cl)c(NCc4cccc5c4C(C)(C)C(=O)N5)n3)c(OC)c2)CC1` [Example I-99] in this work.
An IC50 of 2 nM was found for `COc1cc(C2CCN(C)CC2)ccc1Nc1ncc(Cl)c(NCc2cccc3c2C(C)(C)C(=O)N3)n1` [Example I-100] in this work.
An IC50 of 2 nM was found for `COc1cc(N2CCN(CC3CC3)CC2)ccc1Nc1ncc(Cl)c(NCc2cccc3c2C(C)(C)C(=O)N3)n1` [Example I-101] in this work.
An IC50 of 2 nM was found for `COc1cc(N2CCN(C3CCOCC3)[C@H](C)C2)ccc1Nc1ncc(C(F)(F)F)c(NCc2cccc3c2C(C)(C)C(=O)N3)n1` [Example I-105] in this work.
An IC50 of 0.08 nM was found for `COc1cc(N2CCN(C(C)C)[C@H](C)C2)ccc1Nc1ncc(C(F)(F)F)c(NCc2cccc3c2C(C)(C)C(=O)N3)n1` [Example I-106] in this work.
An IC50 of 0.62 nM was found for `CCN1CCN(c2ccc(Nc3ncc(C(F)(F)F)c(NCc4cccc5c4C(C)(C)C(=O)N5)n3)c(OC)c2)C[C@H]1C` [Example I-107] in this work.
An IC50 of 0.93 nM was found for `COc1cc(N2CCN(C)[C@H](C)C2)ccc1Nc1ncc(C(F)(F)F)c(NCc2cccc3c2C(C)(C)C(=O)N3)n1` [Example I-108] in this work.
An IC50 of 0.87 nM was found for `COc1cc(N2CCN(C3CCC3)[C@H](C)C2)ccc1Nc1ncc(C(F)(F)F)c(NCc2cccc3c2C(C)(C)C(=O)N3)n1` [Example I-109] in this work.
An IC50 of 8 nM was found for `COc1cc(N2CCN(C3CCN(C(C)=O)CC3)CC2)ccc1Nc1ncc(C(F)(F)F)c(NCc2cccc3c2CC(=O)N3)n1` [Example I-110] in this work.
An IC50 of 18 nM was found for `COc1cc(N2CCN(C3CCN(C(C)C)CC3)CC2)ccc1Nc1ncc(C(F)(F)F)c(NCc2cccc3c2CC(=O)N3)n1` [Example I-111] in this work.
An IC50 of 5 nM was found for `COc1cc(N2CCN(C3CCN(C4CC4)CC3)CC2)ccc1Nc1ncc(C(F)(F)F)c(NCc2cccc3c2CC(=O)N3)n1` [Example I-112] in this work.
An IC50 of 3 nM was found for `COc1cc(N2CCN(C3CCN(CC#N)CC3)CC2)ccc1Nc1ncc(C(F)(F)F)c(NCc2cccc3c2CC(=O)N3)n1` [Example I-113] in this work.
An IC50 of 4 nM was found for `CCN1CCC(N2CCN(c3ccc(Nc4ncc(C(F)(F)F)c(NCc5cccc6c5CC(=O)N6)n4)c(OC)c3)CC2)CC1` [Example I-114] in this work.
An IC50 of 10 nM was found for `COc1cc(N2CCN(C3CCN(C4CCOCC4)CC3)CC2)ccc1Nc1ncc(C(F)(F)F)c(NCc2cccc3c2CC(=O)N3)n1` [Example I-115] in this work.
An IC50 of 10 nM was found for `COc1cc(N2CCN(C(C)C)CC2)ccc1Nc1ncc(C(F)(F)F)c(NCc2cccc3c2CC(=O)N3)n1` [Example I-116] in this work.
An IC50 of 9 nM was found for `COc1cc(N2CCN(C3CCN(C)CC3)CC2)ccc1Nc1ncc(C(F)(F)F)c(NCc2cccc3c2CC(=O)N3)n1` [Example I-117] in this work.
An IC50 of 11 nM was found for `COc1cc(N2CCN(C3CCOCC3)CC2)ccc1Nc1ncc(C(F)(F)F)c(NCc2cccc3c2CC(=O)N3)n1` [Example I-118] in this work.
An IC50 of 11 nM was found for `COc1cc(N2CCN(C)CC2)ccc1Nc1ncc(C(F)(F)F)c(NCc2cccc3c2CC(=O)N3)n1` [Example I-119] in this work.
An IC50 of 49 nM was found for `COc1cc(N2CCN(Cc3ccncc3)CC2)ccc1Nc1ncc(C(F)(F)F)c(NCc2cccc3c2CC(=O)N3)n1` [Example I-120] in this work.
An IC50 of 16 nM was found for `COc1cc(N2CCN(C3CCN(CCO)CC3)CC2)ccc1Nc1ncc(C(F)(F)F)c(NCc2cccc3c2CC(=O)N3)n1` [Example I-121] in this work.
An IC50 of 15 nM was found for `COCCN1CCC(N2CCN(c3ccc(Nc4ncc(C(F)(F)F)c(NCc5cccc6c5CC(=O)N6)n4)c(OC)c3)CC2)CC1` [Example I-122] in this work.
An IC50 of 12 nM was found for `COc1cc(N2CCN(C3CCN(C(=O)N(C)C)CC3)CC2)ccc1Nc1ncc(C(F)(F)F)c(NCc2cccc3c2CC(=O)N3)n1` [Example I-123] in this work.
An IC50 of 12 nM was found for `COc1cc(N2CCN(C3CCN(S(=O)(=O)N(C)C)CC3)CC2)ccc1Nc1ncc(C(F)(F)F)c(NCc2cccc3c2CC(=O)N3)n1` [Example I-124] in this work.
An IC50 of 15 nM was found for `COc1cc(N2CCN(C3CCN(S(C)(=O)=O)CC3)CC2)ccc1Nc1ncc(C(F)(F)F)c(NCc2cccc3c2CC(=O)N3)n1` [Example I-125] in this work.
An IC50 of 3 nM was found for `COc1cc(N2CCN(C3CCOCC3)CC2)ccc1Nc1ncc(C(F)(F)F)c(NCc2cccc3c2C(C)(C)C(=O)N3C)n1` [Example I-126] in this work.
An IC50 of 3 nM was found for `COc1cc(N2CCN(C)CC2)ccc1Nc1ncc(C(F)(F)F)c(NCc2cccc3c2C(C)(C)C(=O)N3C)n1` [Example I-127] in this work.
An IC50 of 2 nM was found for `COc1cc(N2CCN(C(C)C)CC2)ccc1Nc1ncc(C(F)(F)F)c(NCc2cccc3c2C(C)(C)C(=O)N3C)n1` [Example I-128] in this work.
An IC50 of 2 nM was found for `CCN1CCN(c2ccc(Nc3ncc(C(F)(F)F)c(NCc4cccc5c4C(C)(C)C(=O)N5C)n3)c(OC)c2)CC1` [Example I-129] in this work.
An IC50 of 2 nM was found for `COc1cc(N2CCN(C3CCN(C)CC3)CC2)ccc1Nc1ncc(C(F)(F)F)c(NCc2cccc3c2C(C)(C)C(=O)N3C)n1` [Example I-130] in this work.
An IC50 of 0.33 nM was found for `COc1cc(N2CCN(CC3CC3)[C@H](C)C2)ccc1Nc1ncc(C(F)(F)F)c(NCc2cccc3c2C(C)(C)C(=O)N3)n1` [Example I-131] in this work.
An IC50 of 0.6 nM was found for `COc1cc(N2CCN(C3CCN(C)CC3)[C@H](C)C2)ccc1Nc1ncc(C(F)(F)F)c(NCc2cccc3c2C(C)(C)C(=O)N3)n1` [Example I-132] in this work.
An IC50 of 13 nM was found for `CN1CCN(c2ccc(Nc3ncc(C(F)(F)F)c(NCc4cccc5c4C(C)(C)C(=O)N5)n3)cn2)CC1` [Example I-133] in this work.
An IC50 of 1 nM was found for `CC(C)N1CCC(c2ccc(Nc3ncc(C(F)(F)F)c(NCc4cccc5c4C(C)(C)C(=O)N5)n3)cc2)CC1` [Example I-134] in this work.
An IC50 of 0.57 nM was found for `COc1cc(N2CCN(C3CCN(C)CC3)CC2)ccc1Nc1ncc(C(F)(F)F)c(NCc2cccc3c2C(C)(C)C(=O)N3)n1` [Example I-135] in this work.
An IC50 of 2 nM was found for `COc1cc(N2CCN(C(C)C)CC2)ccc1Nc1ncc(C(F)(F)F)c(NCc2cccc3c2C(C)(C)C(=O)N3)n1` [Example I-136] in this work.
An IC50 of 65 nM was found for `CCc1cc(Nc2ncc(C(F)(F)F)c(NCc3cccc4c3CC(=O)N4)n2)c(OC)cc1N1CCN(C(C)C)CC1` [Example I-137] in this work.
An IC50 of 13 nM was found for `CCOc1cc(N2CCN(C)CC2)ccc1Nc1ncc(C(F)(F)F)c(NCc2cccc3c2CC(=O)N3)n1` [Example I-138] in this work.
An IC50 of 8 nM was found for `CCOc1cc(N2CCN(C(C)C)CC2)ccc1Nc1ncc(C(F)(F)F)c(NCc2cccc3c2CC(=O)N3)n1` [Example I-139] in this work.
An IC50 of 11 nM was found for `CCOc1cc(N2CCN(CC)CC2)ccc1Nc1ncc(C(F)(F)F)c(NCc2cccc3c2CC(=O)N3)n1` [Example I-140] in this work.
An IC50 of 19 nM was found for `CCOc1cc(N2CCN(C3COC3)CC2)ccc1Nc1ncc(C(F)(F)F)c(NCc2cccc3c2CC(=O)N3)n1` [Example I-141] in this work.
An IC50 of 0.55 nM was found for `CCOc1cc(N2CCN(C)CC2)ccc1Nc1ncc(C(F)(F)F)c(NCc2cccc3c2C(C)(C)C(=O)N3)n1` [Example I-142] in this work.
An IC50 of 1 nM was found for `CCOc1cc(N2CCN(C(C)C)CC2)ccc1Nc1ncc(C(F)(F)F)c(NCc2cccc3c2C(C)(C)C(=O)N3)n1` [Example I-143] in this work.
An IC50 of 0.81 nM was found for `CCOc1cc(N2CCN(CC)CC2)ccc1Nc1ncc(C(F)(F)F)c(NCc2cccc3c2C(C)(C)C(=O)N3)n1` [Example I-144] in this work.
An IC50 of 0.67 nM was found for `CCOc1cc(N2CCN(C3CCN(C)CC3)CC2)ccc1Nc1ncc(C(F)(F)F)c(NCc2cccc3c2C(C)(C)C(=O)N3)n1` [Example I-145] in this work.
An IC50 of 4 nM was found for `CCOc1cc(N2CCN(C3COC3)CC2)ccc1Nc1ncc(C(F)(F)F)c(NCc2cccc3c2C(C)(C)C(=O)N3)n1` [Example I-146] in this work.
An IC50 of 5 nM was found for `COc1cc(N2CC3CC2CN3C2CCN(C)CC2)ccc1Nc1ncc(C(F)(F)F)c(NCc2cccc3c2C(C)(C)C(=O)N3)n1` (stereo not shown) [Example I-147] in this work.
An IC50 of 3 nM was found for `COc1cc(N2CC3CC2CN3C2CCC2)ccc1Nc1ncc(C(F)(F)F)c(NCc2cccc3c2C(C)(C)C(=O)N3)n1` (stereo not shown) [Example I-148] in this work.
An IC50 of 2 nM was found for `COc1cc(N2CC3CC2CN3CC2CC2)ccc1Nc1ncc(C(F)(F)F)c(NCc2cccc3c2C(C)(C)C(=O)N3)n1` (stereo not shown) [Example I-149] in this work.
An IC50 of 3 nM was found for `COc1cc(N2CC3CC2CN3C2CCOCC2)ccc1Nc1ncc(C(F)(F)F)c(NCc2cccc3c2C(C)(C)C(=O)N3)n1` (stereo not shown) [Example I-150] in this work.
An IC50 of 2 nM was found for `COc1cc(N2CC3CC2CN3C)ccc1Nc1ncc(C(F)(F)F)c(NCc2cccc3c2C(C)(C)C(=O)N3)n1` (stereo not shown) [Example I-151] in this work.
An IC50 of 3 nM was found for `COc1cc(N2CC3CC2CN3C(C)C)ccc1Nc1ncc(C(F)(F)F)c(NCc2cccc3c2C(C)(C)C(=O)N3)n1` (stereo not shown) [Example I-152] in this work.
